In publication PMC4965013, “Open Source Drug Discovery with the Malaria Box Compound Collection for Neglected Diseases and Beyond” (PLoS Pathogens, 2016):

Tests used:
[1] = system: P. falciparum 3D7 trophozoites; assay: Metabolomic fingerprint profiling LC-MS; assay type: cell-based, Plasmodium falciparum; parameters: UDP-D-glucose / ADP-D-glucose: unit not given here; details: for Acetyllysine / N-acetyl-L-ornithine / N-carbamoyl-L-aspartate / NADPH / dAMP / dCMP / dTDP / dTMP / dTTP / dihydroorotate / orotate / DLH / DLS/SDL/SID / PD / PEE / PVNF / 3-phosphoglycerate / ADP-D-glucose / ATP / CDP / D-sedoheptulose-1/7-phosphate / FAD / GMP / NAD+ / NADP+ / Octoluse Bisphosphate / Pyroglutamic acid / UDP-D-glucose / UDP-D-glucuronate / UDP-N-acetyl-glucosamine / UDP / UMP / UTP / a-ketoglutarate / citrate/isocitrate / cytidine / dATP / dGMP/AMP / fumarate / glucose-1/6-phosphate / glycerate / guanine / guanosine / hypoxanthine / indole / inosine / nicotinate / ornithine / phosphoenolpyruvate / pyruvate / ribose-phosphate / sarcosine/alanine / sn-glycerol-3-phosphate / succinate/methylmalonic acid / uridine / xanthosine: S2 Table Metabolomics; for Acetyllysine: metabolite Acetyllysine; for N-acetyl-L-ornithine: metabolite N-acetyl-L-ornithine; for N-carbamoyl-L-aspartate: metabolite N-carbamoyl-L-aspartate; for NADPH: metabolite NADPH; for dAMP: metabolite dAMP; for dCMP: metabolite dCMP; for dTDP: metabolite dTDP; for dTMP: metabolite dTMP; for dTTP: metabolite dTTP; for dihydroorotate: metabolite dihydroorotate; for orotate: metabolite orotate; for DLH: peptide DLH; for DLS/SDL/SID: peptide DLS/SDL/SID; for PD: peptide PD; for PEE: peptide PEE; for PVNF: peptide PVNF; for 3-phosphoglycerate: metabolite 3-phosphoglycerate; for ADP-D-glucose: metabolite ADP-D-glucose; for ATP: metabolite ATP; for CDP: metabolite CDP; for CDP / D-sedoheptulose-1/7-phosphate / GMP / Octoluse Bisphosphate / UDP / UMP / UTP / citrate/isocitrate / dGMP/AMP / fumarate / glucose-1/6-phosphate / glycerate / guanine / guanosine / inosine / pyruvate / sarcosine/alanine / succinate/methylmalonic acid / uridine / xanthosine: change in metabolite level after compound treatment; for D-sedoheptulose-1/7-phosphate: metabolite D-sedoheptulose-1/7-phosphate; for FAD: metabolite FAD; for GMP: metabolite GMP; for NAD+: metabolite NAD+; for NADP+: metabolite NADP+; for Octoluse Bisphosphate: metabolite Octoluse Bisphosphate; for Pyroglutamic acid: metabolite Pyroglutamic acid; for UDP-D-glucose: metabolite UDP-D-glucose; for UDP-D-glucuronate: metabolite UDP-D-glucuronate; for UDP-N-acetyl-glucosamine: metabolite UDP-N-acetyl-glucosamine; for UDP: metabolite UDP; for UMP: metabolite UMP; for UTP: metabolite UTP; for a-ketoglutarate: metabolite a-ketoglutarate; for citrate/isocitrate: metabolite citrate/isocitrate; for cytidine: metabolite cytidine; for dATP: metabolite dATP; for dGMP/AMP: metabolite dGMP/AMP; for fumarate: metabolite fumarate; for glucose-1/6-phosphate: metabolite glucose-1/6-phosphate; for glycerate: metabolite glycerate; for guanine: metabolite guanine; for guanosine: metabolite guanosine; for hypoxanthine: metabolite hypoxanthine; for indole: metabolite indole; for inosine: metabolite inosine; for 2_3-Diphosphoglyceric acid / 4-phosphopantothenate / 6-phospho-D-gluconate / FMN / IMP / Pyrophosphate / Sedoheptoluse bisphosphate / cyclic-AMP / glutathione disulfide / lactate / myo-inositol: metabolite level change after treatment; for nicotinate: metabolite nicotinate; for ornithine: metabolite ornithine; for phosphoenolpyruvate: metabolite phosphoenolpyruvate; for pyruvate: metabolite pyruvate; for ribose-phosphate: metabolite ribose-phosphate; for sarcosine/alanine: metabolite sarcosine/alanine; for sn-glycerol-3-phosphate: metabolite sn-glycerol-3-phosphate; for succinate/methylmalonic acid: metabolite succinate/methylmalonic acid; for uridine: metabolite uridine; for xanthosine: metabolite xanthosine
[2] = system: P. falciparum; assay: EC50 listed in S2 Table Metabolomics (used to set the concentration tested); assay type: cell-based; details: Plasmodium falciparum; EC50 used for Factor_XEC50 in metabolomics; read-out: EC50_nM

Structure (SMILES): COc1ccc(C=C2SC(=N)N(c3ccccc3OC)C2=O)cc1 [MMV666691]
- Acetyllysine [1]: -0.06113
- N-acetyl-L-ornithine [1]: -0.04858
- N-carbamoyl-L-aspartate [1]: 3.121
- NADPH [1]: 0.04672
- dAMP [1]: -0.1913
- dCMP [1]: 0.1375
- dTDP [1]: -0.4485
- dTMP [1]: -0.268
- dTTP [1]: -0.128
- dihydroorotate [1]: 3.607
- orotate [1]: -0.9141
- DLH [1]: 0.157
- DLS/SDL/SID [1]: 0.06441
- PD [1]: 0.6447
- PEE [1]: 0.2278
- PVNF [1]: 0.06954
- 3-phosphoglycerate [1]: -0.08972
- ADP-D-glucose [1]: 0.2678
- ATP [1]: 0.4861
- CDP [1]: 0.2338
- D-sedoheptulose-1/7-phosphate [1]: 0.4395
- FAD [1]: 0.4218
- GMP [1]: -0.5619
- NAD+ [1]: 0.2782
- NADP+ [1]: 0.1223
- Octoluse Bisphosphate [1]: 0.2088
- Pyroglutamic acid [1]: -0.1274
- UDP-D-glucose [1]: 0.2576
- UDP-D-glucuronate [1]: 0.2671
- UDP-N-acetyl-glucosamine [1]: 0.2054
- UDP [1]: -0.5559
- UMP [1]: -0.8809
- UTP [1]: -0.652
- a-ketoglutarate [1]: -0.2164
- citrate/isocitrate [1]: -0.06979
- cytidine [1]: 0.2052
- dATP [1]: 0.5778
- dGMP/AMP [1]: -0.07557
- fumarate [1]: 0.7045
- glucose-1/6-phosphate [1]: 0.363
- glycerate [1]: 0.3396
- guanine [1]: 0.3707
- guanosine [1]: 0.4982
- hypoxanthine [1]: 0.09969
- indole [1]: 0.002472
- inosine [1]: 0.382
- 2_3-Diphosphoglyceric acid [1]: 0.1853
- 4-phosphopantothenate [1]: -0.1622
- 6-phospho-D-gluconate [1]: 0.4512
- FMN [1]: 0.2558
- IMP [1]: 0.07363
- Pyrophosphate [1]: 0.16
- Sedoheptoluse bisphosphate [1]: 0.2481
- cyclic-AMP [1]: 0.2139
- glutathione disulfide [1]: 0.5647
- lactate [1]: 0.06184
- myo-inositol [1]: 0.08809
- nicotinate [1]: 0.1482
- ornithine [1]: 0.1318
- phosphoenolpyruvate [1]: -0.1506
- pyruvate [1]: -0.3002
- ribose-phosphate [1]: 0.1031
- sarcosine/alanine [1]: 0.4028
- sn-glycerol-3-phosphate [1]: 0.3221
- succinate/methylmalonic acid [1]: 0.3253
- uridine [1]: -0.3469
- xanthosine [1]: 0.6937
- EC50 [2]: 168 nM

Structure (SMILES): Cc1cc(NC(=O)C2c3ccccc3C(=O)N(CC(C)C)C2c2cccs2)no1 (stereo not shown) [MMV006429]
- Acetyllysine [1]: -4.876
- N-acetyl-L-ornithine [1]: -3.5354
- N-carbamoyl-L-aspartate [1]: -2.585
- NADPH [1]: 1.978
- dAMP [1]: 2.292
- dCMP [1]: 1.167
- dTDP [1]: 1.627
- dTMP [1]: 3.344
- dTTP [1]: 1.446
- dihydroorotate [1]: -3.6651
- orotate [1]: -0.181
- DLH [1]: -5.907
- DLS/SDL/SID [1]: -4.536
- PD [1]: -2.845
- PEE [1]: -3.543
- PVNF [1]: -6.513
- 3-phosphoglycerate [1]: 0.34
- ADP-D-glucose [1]: -0.1376
- ATP [1]: -1.344
- CDP [1]: -0.4641
- D-sedoheptulose-1/7-phosphate [1]: -1.187
- FAD [1]: -1.625
- GMP [1]: -1.884
- NAD+ [1]: -0.4933
- NADP+ [1]: -0.001455
- Octoluse Bisphosphate [1]: -2.069
- Pyroglutamic acid [1]: 0.2334
- UDP-D-glucose [1]: -0.07653
- UDP-D-glucuronate [1]: -0.002659
- UDP-N-acetyl-glucosamine [1]: 0.06871
- UDP [1]: -1.216
- UMP [1]: -0.6265
- UTP [1]: -1.299
- a-ketoglutarate [1]: 0.2879
- citrate/isocitrate [1]: -0.09158
- cytidine [1]: 0.5285
- dATP [1]: 0.0138
- dGMP/AMP [1]: -0.6616
- fumarate [1]: -0.1647
- glucose-1/6-phosphate [1]: -1.368
- glycerate [1]: -0.8344
- guanine [1]: 0.5068
- guanosine [1]: 1.214
- hypoxanthine [1]: 0.09881
- indole [1]: 0.1757
- inosine [1]: 0.2569
- 2_3-Diphosphoglyceric acid [1]: -1.036
- 4-phosphopantothenate [1]: -0.6242
- 6-phospho-D-gluconate [1]: -0.2953
- FMN [1]: -0.07748
- IMP [1]: -0.08419
- Pyrophosphate [1]: -1.06
- Sedoheptoluse bisphosphate [1]: -0.9732
- cyclic-AMP [1]: -0.7986
- glutathione disulfide [1]: -0.4517
- lactate [1]: -0.7779
- myo-inositol [1]: -1.114
- nicotinate [1]: 0.9425
- ornithine [1]: -0.1056
- phosphoenolpyruvate [1]: 0.447
- pyruvate [1]: -2.0102
- ribose-phosphate [1]: -0.6145
- sarcosine/alanine [1]: -1.58
- sn-glycerol-3-phosphate [1]: 1.267
- succinate/methylmalonic acid [1]: 0.2625
- uridine [1]: 1.463
- xanthosine [1]: -1.351
- EC50 [2]: 32.8 nM
